Measured values taken from patent publication US4101537A, “Octapeptides and methods for their production” (Parke, Davis & Company, priority 1977, dated 1978).
Values joined by “and” are separate entries in the source; they are usually repeats but may differ in a detail not shown here. Identical values can stand only once.

System: LRF (luteinizing hormone releasing factor) induced luteinizing hormone (LH) release
Assay: LRF antagonist activity in vitro in rat anterior pituitary cell cultures
Format: cell-based
Details: LRF alone 3.5×10^-10 Molar (LRF Control)
From the text: Octapeptides of this invention were screened for LRF antagonist activity in vitro using rat anterior pituitary cell cultures as described by Vale et. al. [Endocrinology, 91, 562 (1972)]. The inhibition of LRF (luteinizing hormone releasing factor) induced luteinizing hormone (LH) release into the culture medium is the endpoint in this in vitro bioassay.

Substance: LRF Control: luteinizing hormone releasing factor, the stimulus whose LH release the octapeptides inhibit; also called luteinizing hormone releasing hormone (QHWSYGLRPG; Gonadoliberin-1; UniProt P01148 24-33, looked up)
- LH Value: 63.90 ng/mL and 64.13 ng/mL and 40.01 ng/mL
